One data set can be described thus: Caco-2 cell permeability. The following applies: human. For orientation: Caco-2 cells form a polarised layer with tight junctions and transporters.
The conditions of data set [1]: mouse, microsomes, pH 7.4. As for the experimental part: The test agent was incubated in duplicate with mouse liver microsomes at 37°C. The reaction contained microsomal protein in 100 mM K3PO4, 2 mM NADPH, and 3 mM MgCl2 at pH 7.4. A control was run for each test agent omitting NADPH to detect NADPH-free degradation. At t = 0 and 60 min, an aliquot was removed from each experimental and control reaction and mixed with an equal volume of ice-cold Stop Solution (methanol containing propranolol as an internal standard). Stopped reactions were incubated at least ten min at -20°C, and an additional volume of water was added. The samples were centrifuged to remove precipitated protein, and the supernatants were analyzed by LC/MS/MS to quantitate the remaining parent. Data were reported as % remaining by dividing by the time zero concentration value.

A short description of data set [2]: in vitro. As to conditions: African green monkey.
A further data set in a line: physchem. The data set is classed as physicochemical. As to conditions: 37 °C, pH 7.4, aqueous buffer, kinetic from dmso stock. The procedure: Serial dilutions of the test agent were prepared in DMSO at 100x the final concentration. Test article solutions were diluted 100-fold into pH 7.4 phosphate-buffer saline (PBS) in a 96-well plate and mixed. After 2 h at 37°C, the presence of precipitate was detected by turbidity (absorbance at 540 nm). An absorbance value of greater than ‘mean + 3x standard deviation of the blank’ (after subtracting the background) was indicative of turbidity. For brightly colored compounds, a visual inspection of the plate was performed to verify the solubility limit determined by UV absorbance. The solubility limit was reported as the highest experimental concentration with no evidence of turbidity.

In a further data set the test system is Mtb H37Rv strain. As to the kind of experiment: Resazurin (Alamar Blue) MIC assay against replicating Mtb. The data set is classed as cell-based, Mycobacterium tuberculosis. The following applies: Mycobacterium tuberculosis, H37RV, in vitro cultured Mtb H37Rv; lowest concentration inhibiting ≥90% growth; initial hits, quinoxaline di-N-oxides, positive controls; read-out: Mtb MIC (H37Rv).

A short description of data set [3]: in vitro. As to conditions: human, Caco-2.
The next data set concerns clinical strain 692. As to the kind of experiment: AlamarBlue MIC (absorbance), strain panel: 692. The data set is classed as cell-based. The following applies: Mycobacterium tuberculosis, pan-susceptible. (In general: Resazurin is reduced to fluorescent resorufin, in cell work by metabolically active cells.)
Where [4] appears, read: 3.2 μg/mL (1.3X MIC), 6 h, vs DMSO.

Converted amounts (≈) assume the structure as drawn.

On to `CCCCC(=O)c1c(C)[n+]([O-])c2cc(Cl)c(Cl)cc2[n+]1[O-]` [SRI54], for which the efflux ratio at 2 h, 10 μM in “Caco-2 cell permeability” was 0.15. Besides, in data set [1], the “% Compound remaining after 1h in the absence of NADPH” value came to 79.1% and the “% Compound remaining after 1h in the presence of NADPH” value turned out to be 0%. The compound also had a CC50 at 72 h in “in vitro [2]” of 15 µg/mL (≈ 45.6 µM). Besides, in the data set on Mtb (H37Rv) (setting [4]), the “Genes down-regulated at minimum twofold versus control” value is 184 genes and the “Genes up-regulated at least twofold versus control” value was determined as 131 genes. In the data set on Mtb (H37Rv) (3.2 μg/mL, 6 h), the “DNA repair genes down-regulated at least twofold” value was 2/59; the “DNA repair genes up-regulated at least twofold” value is 12/59; the “Methylcitrate cycle genes (prpC, prpD, icl1) induced more than fourfold versus control” value is given as 3/13. In addition, in the data set with Mtb (H37Rv) (ORF01494, treated vs DMSO), the “Avg. fold induction over four replicates, hypothetical protein ORF01494” value worked out at 11.22. The “Avg. fold induction over four replicates, Rv0560c” value with Mtb (H37Rv) (gene Rv0560c, treated vs DMSO) is listed as 38.01. Further, the “Avg. fold induction over four replicates, Rv1130” value in the data set on Mtb (H37Rv) (gene Rv1130, treated vs DMSO) is recorded as 8.92. Further, the “Avg. fold induction over four replicates, Rv3074” value in the data set on Mtb (H37Rv) (gene Rv3074, treated vs DMSO) is on record as 8.59. In addition, the “Avg. fold induction over four replicates, gltA1” value with Mtb (H37Rv) (gene gltA1 (Rv1131), treated vs DMSO) was determined as 15.16. In the data set on Mtb (H37Rv) (top 100 most up- and down-regulated genes vs deposited Mtb transcriptional data), the “Hierarchical clustering of transcriptional response” value is reported as “clustered most closely to the fatty acid biosynthesis inhibitor CD117”. Besides, the kinetic solubility at 2 h in the data set “physchem” amounted to 15.6 µM (≈ 5.14 µg/mL). For the same compound, the MIC in the data set with Mtb H37Rv strain was determined as 2.5 µg/mL (≈ 7.59 µM). Further, in the data set “in vitro [3]”, the apparent permeability from apical to basolateral (Papp A→B) at 2 h, 10 μM was 0.66 ×10⁻⁶ cm/s and the Papp B→A at 2 h, 10 μM is 0.1 ×10⁻⁶ cm/s.

As for `CCCCC(=O)c1c(C)[n+]([O-])c2ccc([N+](=O)[O-])cc2[n+]1[O-]` [SRI50], the “% Compound remaining after 1h in the absence of NADPH” value in data set [1] is 77.5%. For the same compound, the “% Compound remaining after 1h in the presence of NADPH” value in data set [1] is 0.06%. Further, the CC50 at 72 h in “in vitro [2]” came out at 3.4 µg/mL (≈ 11.1 µM). The kinetic solubility at 2 h in “physchem” turned out to be 125 µM (≈ 38.2 µg/mL). Also, the minimum inhibitory concentration (MIC) is 0.16 µg/mL (≈ 0.524 µM) in the data set on clinical strain 692 and 0.32 µg/mL (≈ 1.05 µM) in the data set with Mtb H37Rv strain.

As a reminder, the efflux ratio is a quotient of directional permeabilities that is used to spot active efflux. In general, solubility (kinetic) refers to solubility judged after dilution from a stock solution rather than from solid. By MIC is commonly meant the least concentration at which growth counts as inhibited. As usually defined, the Papp A→B is the apparent permeability from the apical to the basolateral side of a cell layer. By Papp B→A is commonly meant how fast a substance crosses the layer from the basolateral side.
